Here are results for 2 molecules from ChEMBL document CHEMBL1125940 (Bioorg Med Chem Lett, 1991).

Positions of bridges follow the written chain, without caps; N, C: chain ends. Non-standard residues stand in square brackets, D forms with d. Residues, ends and D or L forms follow the SMILES beside them. Nle = CCCC[C@H](N)C(=O)O

Test [1] deals with T1, Endothelin-1 receptor (Rattus norvegicus, UniProt P26684).
T1 sequence (P26684 whole entry): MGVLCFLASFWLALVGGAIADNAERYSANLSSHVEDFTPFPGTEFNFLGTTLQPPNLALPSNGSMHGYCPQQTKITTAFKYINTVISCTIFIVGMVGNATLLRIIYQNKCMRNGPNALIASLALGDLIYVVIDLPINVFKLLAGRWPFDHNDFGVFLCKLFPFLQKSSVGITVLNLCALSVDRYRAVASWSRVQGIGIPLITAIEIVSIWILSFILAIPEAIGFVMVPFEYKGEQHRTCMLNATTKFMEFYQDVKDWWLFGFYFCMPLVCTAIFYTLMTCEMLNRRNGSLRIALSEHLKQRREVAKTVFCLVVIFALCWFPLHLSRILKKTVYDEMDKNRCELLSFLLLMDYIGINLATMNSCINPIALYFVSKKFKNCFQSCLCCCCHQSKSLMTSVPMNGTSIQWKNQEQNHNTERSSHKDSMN
Description: Binding affinity towards Endothelin A receptor in A10 rat thoracic aorta smooth muscle cells using [125I]ET1 as radioligand (Exp 1).

Test [2] has as its target T1, Endothelin-1 receptor. Description: Binding affinity towards Endothelin A receptor in A10 rat thoracic aorta smooth muscle cells using [125I]ET1 as radioligand (Exp 2).

Usually Kd stands for the concentration at which binding is half-saturated. High values mean weaker binding, low ones tighter binding. For the molecule `CCCC[C@@H]1NC(=O)[C@H](CC(C)C)NC(=O)[C@H](CO)NC(=O)[C@H](CO)NC(=O)[C@H](C)NC(=O)[C@H](CO)NC(=O)[C@@H](N)CSSC[C@@H](C(=O)N[C@@H](Cc2cnc[nH]2)C(=O)N[C@@H](CC(C)C)C(=O)N[C@@H](CC(=O)O)C(=O)N[C@H](C(=O)N[C@H](C(=O)N[C@@H](Cc2c[nH]c3ccccc23)C(=O)O)[C@@H](C)CC)[C@@H](C)CC)NC(=O)[C@H](Cc2ccccc2)NC(=O)[C@H](Cc2ccc(O)cc2)NC(=O)[C@H](C(C)C)NC(=O)[C@H](C)NC(=O)[C@H](CCC(=O)O)NC(=O)[C@H](CCCCN)NC(=O)[C@H](CC(=O)O)NC1=O` (H-CSASSL[Nle]DKEAVYFCHLDIIW-OH; disulfide 1-15), the Kd in test [1] stood at 0.35 nM; in test [2] it was 16.6 nM.

For `CC[C@H](C)[C@H](NC(=O)[C@H](CC(=O)O)NC(=O)[C@H](C)NC(=O)[C@H](Cc1c[nH]cn1)NC(=O)[C@@H]1CSSC[C@H](N)C(=O)N[C@@H](CO)C(=O)N[C@H]2CSSC[C@H](NC(=O)[C@H](CCC(=O)O)NC(=O)[C@H](CCCCN)NC(=O)[C@H](CC(=O)O)NC(=O)[C@H](CCSC)NC(=O)[C@H](CC(C)C)NC(=O)[C@H](CO)NC(=O)[C@H](CO)NC2=O)C(=O)N[C@@H](C(C)C)C(=O)N[C@@H](Cc2ccc(O)cc2)C(=O)N[C@@H](Cc2ccccc2)C(=O)N1)C(=O)N[C@H](C(=O)N[C@@H](Cc1c[nH]c2ccccc12)C(=O)O)[C@@H](C)CC` (H-CSCSSLMDKECVYFCHADIIW-OH; disulfide 1-15, 3-11), the Kd in test [1] was determined as 6.6 nM; in test [2], 1910 nM.
